Consider 4 molecules from patent US20080234223A1, “N4 MODIFICATIONS OF PYRIMIDINE ANALOGS AND USES THEREOF” (UNIVERSITY OF SOUTHERN CALIFORNIA, priority 2006, published 2008).

Structures are written as SMILES.

In data set [1] the test system is LINE-1 DNA methylation in HepG2 cells (carboxylesterase dependence). Description: Inhibition of carboxylesterase by NDGA: LINE-1 methylation in HepG2 cells. The data set is classed as cell-based. The source says:
(§1) Bisulfite-converted DNA was used for pyrosequencing analysis as previously described (29). In brief, PCR product of each gene was used for individual sequencing reaction. Streptavidin-Sepharose beads (Amersham Biosciences, Uppsala, Sweden) and Vacuum Prep Tool (Biotage AB, Uppsala, Sweden) was used to purify the single-stranded biotinylated PCR product per the manufacturer's recommendation. The appropriate sequencing primer was annealed to the purified PCR product and used for a pyrosequencing reaction using the PSQ 96HS system (Biotage AB, Uppsala, Sweden). Raw data were analyzed with the allele quantification algorithm using the provided software. Pyrosequencing was done for LINE-1 elements and ID4 tumor suppressor gene.
For dose effects of nordihydroguaiaretic acid (NDGA) on CES inhibition, HepG2 cells were grown in 6-well plates. […] Cells were harvested on day 4 by Tripsin-EDTA.

Data set [2] concerns epigenetically silenced GFP reporter gene in NIH3T3 cells. Description: Epigenetic GFP reporter system, NIH3T3 cells with transient CES1 or CES2 transfection. The note with it: NIH3T3 GFP reporter clone. It counts as cell-based. The source says:
It was discovered that NPEOC-DAC could inhibit DNA methylation in cells expressing CES1 but not cells expressing CES2, and that inhibition of CES by NDGA blocked the ability of NPEOC-DAC to inhibit DNA methylation. […] Transfection of CES2 had no effect on NPEOC-DAC treatment and activation of GFP. NPEOC-DAC activation is dependent on CES1 expression.

For data set [3], the system named is LINE-1 DNA methylation in T24 cells (bladder). The experiment in a line: Global DNA methylation, bisulfite-PCR pyrosequencing of LINE-1, T24 cells. The note with it: for LINE-1 methylation level after treatment: baseline 47.3%; for decrease in global DNA methylation (LINE-1): three days. The data set is classed as cell-based. The protocol:
(§2) T24 cells (urinary bladder transitional cell carcinoma), MCF7 (breast adenocarcinoma), HepG2 cells (hepatocellular carcinoma), Hep3B (hepatocellular carcinoma), were obtained from American Type Culture Collection (Manassas, Va.). T24 were cultured in McCoy's 5A medium supplemented with 10% fetal bovine serum. Other cells were cultured in DMEM medium plus 10% fetal bovine serum. All cells were grown in a humidified 37° C. incubator containing 5% CO2.
(§3) Cells were seeded at 2×10^4 cells per well in a 12-well dish 24 hours prior to treatments. Cells were treated with 5-Aza-CdR (Sigma-Aldrich Chemical Company, St. Louis, Mo.), NPEOC-DAC at the indicated concentrations. 5-aza-2′-deoxyazacytidine was dissolved in distilled water and NPEOC-DAC was dissolved in dimethyl sulfoxide (DMSO). Untreated controls of the DMSO solvent alone were also included. Cells were treated at the concentrations indicated for each experiment. Cells were collected after the number of days indicated in individual experiments. For subsequent methylation, genomic DNA was extracted using standard phenol/chloroform extraction methods, as described previously (27). Each experiment was done in triplicate and standard deviations are indicated by error bars.
(§4) Bisulfite modification of genomic DNA has been described previously (28). In brief, 1.5 μg of DNA was denatured in 50 μl of 0.2 M NaOH for 10 min at 37° C. Then, 30 μl of freshly prepared 10 mM hydroquinone (Sigma) and 520 μl of 3 M sodium bisulfite (Sigma) at pH 5.0 were added and mixed. The samples were overlaid with mineral oil to prevent evaporation and incubated at 50° C. for 16 h. The bisulfite-treated DNA was isolated using Wizard DNA Clean-Up System (Promega). The DNA was eluted by 50 microliters of warm water and 5.5 microliters of 3 M NaOH were added for 5 min. The DNA was ethanol precipitated with glycogen as a carrier and resuspended in 20 microliters of water. Bisulfite treated DNA was stored at −20° C. until ready for use.
as §1

Data set [4] relates to ID4 DNA methylation in Hep3B cells. Description: ID4 gene methylation, bisulfite-PCR pyrosequencing, Hep3B cells. It counts as cell-based. The note with it: 10 μM, 3 days, baseline 95.4%. How it is done:
as §2
(§5) Cells were seeded at 2×10^4 cells per well in a 12-well dish 24 hours prior to treatments. Cells were treated with 5-Aza-CdR (Sigma-Aldrich Chemical Company, St. Louis, Mo.), NPEOC-DAC at the indicated concentrations. 5-aza-2′-deoxyazacytidine was dissolved in distilled water and NPEOC-DAC was dissolved in dimethyl sulfoxide (DMSO). Untreated controls of the DMSO solvent alone were also included. Cells were treated at the concentrations indicated for each experiment. Cells were collected after the number of days indicated in individual experiments. […]
(§6) Bisulfite modification of genomic DNA has been described previously (28). […] Bisulfite treated DNA was stored at −20° C. until ready for use.
(§7) Bisulfite-converted DNA was used for pyrosequencing analysis as previously described (29). […] Raw data were analyzed with the allele quantification algorithm using the provided software. […]

Data set [5] has as its system LINE-1 DNA methylation in MCF7 cells (breast). Description: Global DNA methylation, bisulfite-PCR pyrosequencing of LINE-1, MCF7 cells. It counts as cell-based. The note with it: MCF; 10 μM; three days. How it is done: as §2, §5, §6, §7
Data set [6] relates to LINE-1 DNA methylation in HepG2 cells (liver). Description: Global DNA methylation, bisulfite-PCR pyrosequencing of LINE-1, HepG2 cells. It counts as cell-based. To be noted: for LINE-1 methylation level after treatment / LINE-1 methylation level, time course / decrease in global DNA methylation (LINE-1): HepG2; for LINE-1 methylation level after treatment: 3 days, untreated baseline 53.9%; for LINE-1 methylation level, time course: 10 μM continual treatment, baseline 53.9%; for decrease in global DNA methylation (LINE-1): three days. How it is done:
as §2, §3, §4, §1

For data set [7], the system named is LINE-1 DNA methylation in Hep3B cells (liver). Description: Global DNA methylation, bisulfite-PCR pyrosequencing of LINE-1, Hep3B cells. The data set is classed as cell-based. To be noted: 10 μM, three days. How it is done: as §2, §5, §6, §7
For a further data set, the system named is HepG2 cells. Description: Cell toxicity during drug treatment of HepG2 cells. To be noted: for toxicity: 10 uM continual treatment, time course. It counts as cell-based. How it is done:
as §3

The test system of data set [8] is ID4 DNA methylation in HepG2 cells. Description: ID4 gene methylation, bisulfite-PCR pyrosequencing, HepG2 cells. The data set is classed as cell-based. The note with it: 10 μM, 3 days, baseline 94.7%. How it is done: as §2, §5, §6, §7
The test system of data set [9] is ID4 expression in HepG2 cells. The experiment in a line: ID4 mRNA expression by RT-PCR in HepG2 cells. The data set is classed as cell-based. To be noted: 3 days of treatment, untreated cells no detectable ID4. How it is done:
Genomic DNA was isolated by standard proteinase K digestion and phenol-chloroform extraction (26). Total RNA was collected and extracted from cultured cells with the RNeasy Protect minikit (Qiagen, Valencia, Calif.) according to the manufacturer's protocol.
as §3
Total RNA (5 micrograms) extracted from cultured cells was reverse transcribed with Moloney murine leukemia virus reverse transcriptase (Invitrogen, Carlsbad, Calif.) and random hexamers (NEB) in a total volume of 20 microliters. The reverse transcription was performed according to the manufacturer's recommended protocol. […]

For data set [10], the system named is ID4 DNA methylation in MCF7 cells. The experiment in a line: ID4 gene methylation, bisulfite-PCR pyrosequencing, MCF7 cells. The data set is classed as cell-based. The note with it: MCF; 10 μM; 3 days; baseline 39.0%. How it is done: as §2, §5, §6, §7
In data set [11] the test system is ID4 DNA methylation in T24 cells. The experiment in a line: ID4 gene methylation, bisulfite-PCR pyrosequencing, T24 cells. The note with it: 10 μM, 3 days, baseline 40.2%. It counts as cell-based. The protocol:
as §2, §5, §6, §7

A further data set is described as follows: Solubility in water. It counts as physicochemical. The note with it: consequently dissolved in DMSO.
For data set [12] the following is noted: rapid deamination by plasma cytidine deaminase; cited from earlier work.

`CC(Cc1ccc(O)c(O)c1)C(C)Cc1ccc(O)c(O)c1` (centres unmarked) [NDGA, nordihydroguaiaretic acid, reference compound]: the “effect on DNA methylation of HepG2 cells” value in [1] (100 μM, alone) is given as “no effect”.
In the case of `Nc1ncn([C@H]2C[C@H](O)[C@@H](CO)O2)c(=O)n1` [DAC, 5-aza-2′-deoxycytidine, reference compound], in data set [2] (no CES transfection), the “reactivation of GFP” value is given as “could be reactivated”. Besides, the “LINE-1 methylation level after treatment” value in data set [3] (0.5 uM, 3 days) amounted to 26.8%; in data set [3] (1 uM, 3 days), 21.0%; in [3] (5 uM, 3 days), 35.7%; in data set [6] (0.5 μM) it was 46.0%; in data set [6] (1 μM) it was 47.0%; in data set [6] (5 μM), 56.9%. Besides, the “decrease in global DNA methylation (LINE-1)” value in [3] (10 μM) was 57.1%; in [5] it was 11.0%; in [6] (10 μM), 5.6%; in [7], 12.3%. Further, the “decrease in DNA methylation of ID4” value in [4] is listed as 1.1%; in [8], 2.6%; in [10], 19.7%; in data set [11] it was 38.1%. Moreover, the “LINE-1 methylation level, time course” value is given as 36.5% in data set [6] (day 1) and “returned to baseline” in data set [6] (day 7). Moreover, the toxicity entry in the data set with HepG2 cells was “significant toxicity”. The cell toxicity entry in the data set on HepG2 cells (higher concentrations (5 μM), 3 days) is given as “significant cell toxicity”. Further, the “ID4 mRNA expression (RT-PCR)” value in data set [9] is on record as “clear expression of ID4 could be detected”.
Regarding `O=C(Nc1ncn([C@H]2C[C@H](O)[C@@H](CO)O2)c(=O)n1)OCCc1ccc([N+](=O)[O-])cc1` [NPEOC-DAC, 2′-deoxy-N4-[2-(4-nitrophenyl)ethoxycarbonyl]-5-azacytidine], the “reactivation of GFP” value in data set [2] (no CES transfection) is “without reactivation of GFP”; in [2] (transfection of CES2), “no effect”; in [2] (transient transfection of human CES1 gene) it was “reactivation of GFP”. The “decrease in DNA methylation (LINE-1), time course” value in [3] (10 μM, prolonged treatment (to day 14)) is on record as “did not show any decrease”. Further, the “decrease in global DNA methylation (LINE-1)” value is 0.9% in data set [3] (10 μM), 5.1% in data set [5], 22.1% in data set [6] (10 μM) and 17.4% in data set [7]. The “change in DNA methylation (LINE-1)” value in data set [3] (3 days, up to the highest concentrations) was “no change in DNA methylation”. The “decrease in DNA methylation of ID4” value was found to be 26.2% in data set [4], 24.7% in data set [8], 10.0% in data set [10] and 8.2% in data set [11]. Also, in data set [6], the “delay in the effects compared to DAC” value turned out to be 3 days. Further, the “fold less efficient at inhibiting DNA methylation compared to DAC” value in [6] turned out to be 23 fold. Besides, the “LINE-1 methylation level after treatment” value in data set [6] (0.5 μM) is listed as “no detectable effect”; in data set [6] (10 μM, concentration series), 42.0%; in data set [6] (100 μM), 28.7%; in data set [1] (10 μM NPEOC-DAC alone) it was 24.5%. Moreover, the “LINE-1 methylation level, time course” value was “did not begin to decrease LINE-1 methylation until day 3” in data set [6] (day 1), 43.7% in [6] (day 3), 38.9% in data set [6] (day 7) and 30.9% in [6] (day 14). The “LINE-1 methylation decreased by” value in data set [1] (10 μM NPEOC-DAC alone) is 49.7%. The “LINE-1 methylation change in combination with NDGA” value in [1] (in combination with NDGA (100 μM)) is “did not decrease”. Further, in “Solubility in water”, the solubility in water entry is reported as “very low solubility in water”. Further, the toxicity result in the data set with HepG2 cells is given as “less toxicity than observed with DAC”. In addition, the “ID4 mRNA expression (RT-PCR)” value in data set [9] is listed as “increased expression of ID4”.
For `Nc1ncn([C@@H]2O[C@H](CO)[C@@H](O)[C@H]2O)c(=O)n1` [5-azacytidine], the “in vivo plasma half-life” value in data set [12] is 41 min.
